System: 37Cy3-74Cy5-riboSAM (RNA, riboswitch, Cy3-modified U at 37, Cy5-modified U at 74) GGGAAGAAAUAACAAUCAACGACGUAUCAUUGUGCCUCGCUUUCCGCGGGGCGAUAAGUCCUGAAGAAAGGGAUGAUAUGACAUAAGAACAUCGG
Experiment: smFRET (TIRF)
Details: 50 mM Na+, 10 mM Tris-HCl pH 8.0, 25 °C, 0.5 mM SAM

- binding (2 mM Mg2+, stable EFRET ~0.8 population 18.5% to 37.6%): yes
- binding (no Mg2+, no significant structural transition, same at 0.05 mM Mg2+): weak
Structure (SMILES): C[S+](CC[C@H](N)C(=O)O)C[C@H]1O[C@@H](n2cnc3c(N)ncnc32)[C@H](O)[C@@H]1O (some centres unmarked)
